Consider 28 molecules from patent publication US8735414B2 (priority 2009, dated 2014).

The structures appear in SMILES notation. pIC50: −log10 of the molar value.

For the experiment, the system named is bicistronic HCV replicon (replicon RNA, GenBank Accession No. AJ242654). The experiment in a line: HCV Replicon Assay. The conditions noted are these: Hepatitis C virus, 72 h, read-out: Replicon IC50. In kind it is cell-based.

Regarding `C[C@H](NS(=O)(=O)c1ccc(-c2c(C#N)c3cc(F)c(C4(C)OCCO4)cc3n2-c2ncccn2)nc1)C(F)(F)F` [compound 927, 6-[3-cyano-5-fluoro-6-(2-methyl-1,3-dioxolan-2-yl)-1-(pyrimidin-2-yl)-1H-indol-2-yl]-N-[(2S)-1,1,1-trifluoropropan-2-yl]pyridine-3-sulfonamide], the pIC50 is above 6.30. For `CC(C)(NS(=O)(=O)c1ccc(-c2c(C(=O)O)c3cc(F)c(OC(F)F)cc3n2C2CCCCC2)nc1)C(F)(F)F` [compound 928, 1-cyclohexyl-6-(difluoromethoxy)-5-fluoro-2-{5-[(1,1,1-trifluoro-2-methylpropan-2-yl)sulfamoyl]pyridin-2-yl}-1H-indole-3-carboxylic acid] the value was above 6.30. For `CCc1cc2c(cc1F)c(C#N)c(-c1ccc(S(=O)(=O)N[C@@H](C)C(F)(F)F)cn1)n2-c1ccc(C)cn1` [compound 931, 6-[3-cyano-6-ethyl-5-fluoro-1-(5-methylpyridin-2-yl)-1H-indol-2-yl]-N-[(2S)-1,1,1-trifluoropropan-2-yl]pyridine-3-sulfonamide] the value was above 6.30; for `CC(=O)c1cc2c(cc1F)c(C(C)=O)c(-c1ccc(S(=O)(=O)NC(C)(C)C)cn1)n2-c1ncccn1` [compound 939, N-tert-butyl-6-(3,6-diacetyl-5-fluoro-1-(pyrimidin-2-yl)-1H-indol-2-yl)pyridine-3-sulfonamide], 5.30 to 5.70. Regarding `CCc1cc2c(cc1F)c(C#N)c(-c1ccc(S(=O)(=O)N[C@@H](C)C(F)(F)F)cn1)n2C1=NC=CCN1` [compound 941, 6-[3-cyano-1-(1,6-dihydropyrimidin-2-yl)-6-ethyl-5-fluoro-1H-indol-2-yl]-N-[(2S)-1,1,1-trifluoropropan-2-yl]pyridine-3-sulfonamide], the pIC50 was 5.70 to 6.30. For `CCc1cc2c(cc1F)c(C#N)c(-c1ccc(S(=O)(=O)N[C@@H](C)C(F)(F)F)cn1)n2-c1ncc(F)cn1` [compound 946, 6-[3-cyano-6-ethyl-5-fluoro-1-(5-fluoropyrimidin-2-yl)-1H-indol-2-yl]-N-[(2S)-1,1,1-trifluoropropan-2-yl]pyridine-3-sulfonamide] the value was above 6.30; for `[2H][C@@](C)(NS(=O)(=O)c1ccc(-c2c(C#N)c3cc(F)c(CC)cc3n2-c2ncccn2)nc1)C(F)(F)F` [compound 956, 6-[3-cyano-6-ethyl-5-fluoro-1-(pyrimidin-2-yl)-1H-indol-2-yl]-N-[(2S)-1,1,1-trifluoro(2-deuterium)propan-2-yl]pyridine-3-sulfonamide], above 6.30. With `Cc1cc2c(cc1F)cc(-c1ccc(S(=O)(=O)N[C@@H](C)C(F)(F)F)cn1)n2-c1cscn1` [compound 957, 6-[5-fluoro-6-methyl-1-(1,3-thiazol-4-yl)-1H-indol-2-yl]-N-[(2S)-1,1,1-trifluoropropan-2-yl]pyridine-3-sulfonamide], the pIC50 is 5.70 to 6.30. For `Cc1cc2c(cc1F)cc(-c1ccc(S(=O)(=O)N[C@@H](C)C(F)(F)F)cn1)n2-c1nncs1` [compound 958, 6-[5-fluoro-6-methyl-1-(1,3,4-thiadiazol-2-yl)-1H-indol-2-yl]-N-[(2S)-1,1,1-trifluoropropan-2-yl]pyridine-3-sulfonamide] the value was 5.70 to 6.30; for `Cc1cc2c(cc1F)cc(-c1ccc(S(=O)(=O)N[C@@H](C)C(F)(F)F)cn1)n2-c1cncs1` [compound 959, 6-[5-fluoro-6-methyl-1-(1,3-thiazol-5-yl)-1H-indol-2-yl]-N-[(2S)-1,1,1-trifluoropropan-2-yl]pyridine-3-sulfonamide], above 6.30; for `C=CCc1cc2c(cc1F)c(C#N)c(-c1ccc(S(=O)(=O)N[C@@H](C)C(F)(F)F)cn1)n2-c1ncccn1` [compound 967, 6-[3-cyano-5-fluoro-6-(prop-2-en-1-yl)-1-(pyrimidin-2-yl)-1H-indol-2-yl]-N-[(2S)-1,1,1-trifluoropropan-2-yl]pyridine-3-sulfonamide], above 6.30. `C=CCc1cc2c(cc1F)c(Cl)c(-c1ccc(S(=O)(=O)N[C@@H](C)C(F)(F)F)cn1)n2-c1ncccn1` [compound 968, 6-[3-chloro-5-fluoro-6-(prop-2-en-1-yl)-1-(pyrimidin-2-yl)-1H-indol-2-yl]-N-[(2S)-1,1,1-trifluoropropan-2-yl]pyridine-3-sulfonamide]: the pIC50 is 5.70 to 6.30. Regarding `C=CCc1cc2c(cc1F)cc(-c1ccc(S(=O)(=O)N[C@@H](C)C(F)(F)F)cn1)n2-c1ncccn1` [compound 969, 6-[5-fluoro-6-(prop-2-en-1-yl)-1-(pyrimidin-2-yl)-1H-indol-2-yl]-N-[(2S)-1,1,1-trifluoropropan-2-yl]pyridine-3-sulfonamide], the pIC50 was above 6.30.

Turning to `C[C@H](NS(=O)(=O)c1ccc(-c2c(C#N)c3cc(F)c(CCO)cc3n2-c2ncccn2)nc1)C(F)(F)F` [compound 970, 6-[3-cyano-5-fluoro-6-(2-hydroxyethyl)-1-(pyrimidin-2-yl)-1H-indol-2-yl]-N-[(2S)-1,1,1-trifluoropropan-2-yl]pyridine-3-sulfonamide], the pIC50 is above 6.30. Take `Cc1cc2c(cc1F)c(Cl)c(-c1ccc(S(=O)(=O)N[C@@H](C)C(F)(F)F)cn1)n2-c1nncs1` [compound 972, 6-[3-chloro-5-fluoro-6-methyl-1-(1,3,4-thiadiazol-2-yl)-1H-indol-2-yl]-N-[(2S)-1,1,1-trifluoropropan-2-yl]pyridine-3-sulfonamide]: the pIC50 was 5.30 to 5.70.

For `COC(=O)c1cnc(-n2c(-c3ccc(S(=O)(=O)N[C@@H](C)C(F)(F)F)cn3)c(C#N)c3cc(F)c(C)cc32)s1` [compound 985, methyl 2-[3-cyano-5-fluoro-6-methyl-2-(5-{[(2S)-1,1,1-trifluoropropan-2-yl]sulfamoyl}pyridin-2-yl)-1H-indol-1-yl]-1,3-thiazole-5-carboxylate], the pIC50 is above 6.30. For `COC(=O)c1csc(-n2c(-c3ccc(S(=O)(=O)N[C@@H](C)C(F)(F)F)cn3)c(C#N)c3cc(F)c(C)cc32)n1` [compound 986, methyl 2-[3-cyano-5-fluoro-6-methyl-2-(5-{[(2S)-1,1,1-trifluoropropan-2-yl]sulfamoyl}pyridin-2-yl)-1H-indol-1-yl]-1,3-thiazole-4-carboxylate] the value was above 6.30. For `Cc1cc2c(cc1F)cc(-c1ccc(S(=O)(=O)N[C@@H](C)C(F)(F)F)cn1)n2-c1ccsc1` [compound 987, 6-[5-fluoro-6-methyl-1-(thiophen-3-yl)-1H-indol-2-yl]-N-[(2S)-1,1,1-trifluoropropan-2-yl]pyridine-3-sulfonamide] the value was above 6.30. As to `Cc1cc2c(cc1F)cc(-c1ccc(S(=O)(=O)N[C@@H](C)C(F)(F)F)cn1)n2-c1ccoc1` [compound 988, 6-[5-fluoro-1-(furan-3-yl)-6-methyl-1H-indol-2-yl]-N-[(2S)-1,1,1-trifluoropropan-2-yl]pyridine-3-sulfonamide], the pIC50 is above 6.30. With `Cc1cc2c(cc1F)cc(-c1ccc(S(=O)(=O)N[C@@H](C)C(F)(F)F)cn1)n2-c1cccs1` [compound 989, 6-[5-fluoro-6-methyl-1-(thiophen-2-yl)-1H-indol-2-yl]-N-[(2S)-1,1,1-trifluoropropan-2-yl]pyridine-3-sulfonamide] the figure was above 6.30; with `CCc1cc2c(cc1F)c(C#N)c(-c1ccc(S(=O)(=O)N[C@@H](C)C(F)(F)F)cn1)n2-c1ccc(C)cc1` [compound 1004, 6-[3-cyano-6-ethyl-5-fluoro-1-(4-methylphenyl)-1H-indol-2-yl]-N-[(2S)-1,1,1-trifluoropropan-2-yl]pyridine-3-sulfonamide], above 6.30.

Consider `CCc1cc2c(cc1F)c(C(N)=O)c(-c1ccc(S(=O)(=O)N[C@@H](C)C(F)(F)F)cn1)n2-c1cccc(C(F)(F)F)c1` [compound 1026, 6-ethyl-5-fluoro-1-[3-(trifluoromethyl)phenyl]-2-(5-{[(2S)-1,1,1-trifluoropropan-2-yl]sulfamoyl}pyridin-2-yl)-1H-indole-3-carboxamide], for which the pIC50 is 5.70 to 6.30. Consider `CCc1cc2c(cc1F)c(C(=O)O)c(-c1cnc(NS(=O)(=O)C(C)(C)C)nc1)n2C1CCCCC1` [compound 1029, 2-{2-[(tert-butylsulfonyl)amino]pyrimidin-5-yl}-1-cyclohexyl-6-ethyl-5-fluoro-1H-indole-3-carboxylic acid], for which the negative logarithm of the IC50 (pIC50) is 5.30 to 5.70. For `CCc1cc2c(cc1F)c(C(N)=O)c(-c1ccc(S(=O)(=O)N[C@@H](C)C(F)(F)F)cn1)n2-c1ccc(C)cn1` [compound 1039, 6-ethyl-5-fluoro-1-(5-methylpyridin-2-yl)-2-(5-{[(2S)-1,1,1-trifluoropropan-2-yl]sulfamoyl}pyridin-2-yl)-1H-indole-3-carboxamide] the value was 5.70 to 6.30; for `CCc1cc2c(cc1F)c(C(N)=O)c(-c1ccc(S(=O)(=O)N[C@@H](C)C(F)(F)F)cn1)n2-c1cccnc1` [compound 1040, 6-ethyl-5-fluoro-1-(pyridin-3-yl)-2-(5-{[(2S)-1,1,1-trifluoropropan-2-yl]sulfamoyl}pyridin-2-yl)-1H-indole-3-carboxamide], above 6.30. For `CCc1cc2c(cc1F)c(C(N)=O)c(-c1ccc(S(=O)(=O)N[C@@H](C)C(F)(F)F)cn1)n2-c1ccncn1` [compound 1041, 6-ethyl-5-fluoro-1-(pyrimidin-4-yl)-2-(5-{[(2S)-1,1,1-trifluoropropan-2-yl]sulfamoyl}pyridin-2-yl)-1H-indole-3-carboxamide] the value was above 6.30. For the molecule `CCc1cc2c(cc1F)c(C(N)=O)c(-c1ccc(S(=O)(=O)N[C@@H](C)C(F)(F)F)cn1)n2-c1ncccc1Cl` [compound 1042, 1-(3-chloropyridin-2-yl)-6-ethyl-5-fluoro-2-(5-{[(2S)-1,1,1-trifluoropropan-2-yl]sulfamoyl}pyridin-2-yl)-1H-indole-3-carboxamide], the pIC50 was 5.70 to 6.30.

In the case of `CCc1cc2c(cc1F)c(C(N)=O)c(-c1ccc(S(=O)(=O)N[C@@H](C)C(F)(F)F)cn1)n2-c1ccc(Cl)cn1` [compound 1043, 1-(5-chloropyridin-2-yl)-6-ethyl-5-fluoro-2-(5-{[(2S)-1,1,1-trifluoropropan-2-yl]sulfamoyl}pyridin-2-yl)-1H-indole-3-carboxamide], the negative-log IC50 (pIC50) was above 6.30.
